The target in one assay is KRas(G12V) (Homo sapiens (Human), UniProt P01116, G12V). The experiment in a line: KRas(G12V) GDP HTRF (BODIPY-GDP exchange TR-FRET). It counts as biochemical. (In TR-FRET formats the signal depends on donor and acceptor labels being close together.)
The target of another assay is KRas (Homo sapiens (Human), UniProt P01116). The experiment in a line: KRas GDP HTRF (BODIPY-GDP exchange TR-FRET). It counts as biochemical. The procedure:
KRAS Biochemical Assay—BODIPY-GDP Exchange TR-FRET. Biochemical compound potencies were assessed by evaluating inhibition of SOS1-mediated nucleotide exchange in KRAS G12D. The SOS1-promoted exchange of fluorescently-labeled GDP (BODIPY-GDP) was monitored by time-resolved fluorescence resonance energy transfer (TR-FRET). Compounds solubilized in DMSO were dispensed as concentration series into 384-well white assay plates. […] The reaction was initiated with the addition of 5 μL of 3 nM recombinant human SOS1 and 300 nM BODIPY-GDP in assay buffer. After a 60-minute incubation, the fluorescence was measured with excitation at 337 nm and emission at 490 and 520 nm. The TR-FRET ratio was determined as the fluorescence at 520 nm divided by the fluorescence at 490 nm multiplied by 10,000. […] The normalized TR-FRET results were plotted against compound concentration, and the data fit to a 4-parameter Hill equation to determine the IC50 values.

Chain of KRas(G12V) (P01116-2 other isoform, or with tags, fused parts or gaps G12V): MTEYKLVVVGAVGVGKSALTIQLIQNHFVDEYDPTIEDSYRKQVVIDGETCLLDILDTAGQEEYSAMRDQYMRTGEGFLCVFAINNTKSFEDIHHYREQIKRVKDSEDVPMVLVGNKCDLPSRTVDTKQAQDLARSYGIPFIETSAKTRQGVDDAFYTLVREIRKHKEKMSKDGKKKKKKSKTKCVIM
Chain of KRas (P01116-2 other isoform, or with tags, fused parts or gaps): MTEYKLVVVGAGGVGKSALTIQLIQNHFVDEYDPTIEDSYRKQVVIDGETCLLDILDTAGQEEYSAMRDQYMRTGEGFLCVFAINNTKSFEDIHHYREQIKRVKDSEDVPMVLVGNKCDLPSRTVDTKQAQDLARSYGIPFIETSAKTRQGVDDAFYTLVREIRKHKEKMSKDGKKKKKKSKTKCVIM

What is called IC50 is the concentration at which inhibition is half-maximal. Read a high IC50 as weaker potency in that assay. As for `Cc1cc(N)nc(-c2c(Cl)c3c4c(nc(OC[C@@H]5CCCN5CC(F)F)nc4c2F)N([C@H](C)c2nccnc2N)CCO3)c1C(F)(F)F` (atropisomer, axis not shown) [Example 158a, 3-((R)-1-((R)-9-(6-amino-4-methyl-3-(trifluoromethyl)pyridin-2-yl)-8-chloro-2-(((S)-1-(2,2-difluoroethyl)pyrrolidin-2-yl)methoxy)-10-fluoro-5,6-dihydro-4H-[1,4]oxazepino[5,6,7-de]quinazolin-4-yl)ethyl)pyrazin-2-amine], the values for the IC50 on KRas(G12V) and against KRas were 0.76 nM and 5.41 nM, respectively.
Consider `Cc1cc(N)nc(-c2c(Cl)c3c4c(nc(OC[C@@H]5CC(F)(F)CN5C)nc4c2F)N([C@H](C)c2cncc(N)c2)CCO3)c1C(F)(F)F` (single isomer, unassigned) [Example 70a], for which the IC50 at KRas(G12V) turned out to be 0.49 nM; against KRas, 8.3 nM.
As for `Cc1cc(N)nc(-c2cc3ncnc4c3c(c2Cl)OCCN4Cc2cnc[nH]2)c1C(F)(F)F` [Example 30, 6-(4-((1H-imidazol-5-yl)methyl)-8-chloro-5,6-dihydro-4H-[1,4]oxazepino[5,6,7-de]quinazolin-9-yl)-4-methyl-5-(trifluoromethyl)pyridin-2-amine], the IC50 came out at 4700 nM against KRas(G12V) and 35000 nM at KRas.
`Cc1cc(N)nc(-c2c(Cl)c3c4c(nc(OC[C@@]56CCCN5CC(F)(F)C6)nc4c2F)N([C@H](C)c2nccnc2N)CCO3)c1C(F)(F)F` (atropisomer, axis not shown) [Example 165b, 3-((R)-1-((S)-9-(6-amino-4-methyl-3-(trifluoromethyl)pyridin-2-yl)-8-chloro-2-(((S)-2,2-difluorotetrahydro-1H-pyrrolizin-7a(5H)-yl)methoxy)-10-fluoro-5,6-dihydro-4H-[1,4]oxazepino[5,6,7-de]quinazolin-4-yl)ethyl)pyrazin-2-amine]: the IC50 against KRas(G12V) was determined as 890 nM; against KRas, 2000 nM.
Turning to `Cc1cc(N)nc(-c2c(Cl)c3c4c(nc(OC[C@@H]5CC[C@H]6COCCN65)nc4c2F)N([C@H](C)c2ccnnc2N)CCO3)c1C(F)(F)F` (atropisomer, axis not shown; (aS)) [Example 175, 4-((R)-1-((R)-9-(6-amino-4-methyl-3-(trifluoromethyl)pyridin-2-yl)-8-chloro-10-fluoro-2-(((6S,8aS)-hexahydro-1H-pyrrolo[2,1-c][1,4]oxazin-6-yl)methoxy)-5,6-dihydro-4H-[1,4]oxazepino[5,6,7-de]quinazolin-4-yl)ethyl)pyridazin-3-amine], the results for the 50% inhibitory concentration (IC50) against KRas(G12V) and at KRas were 0.08 nM and 0.1 nM, respectively.
With `Cc1cc(N)nc(-c2cc3ncnc4c3c(c2Cl)OCCN4Cc2ccns2)c1C(F)(F)F` [Example 22, 6-(8-chloro-4-(isothiazol-5-ylmethyl)-5,6-dihydro-4H-[1,4]oxazepino[5,6,7-de]quinazolin-9-yl)-4-methyl-5-(trifluoromethyl)pyridin-2-amine], the IC50 amounted to 11000 nM at KRas(G12V) and 43000 nM against KRas.
The matching figures for `Cc1cc(N)nc(-c2cc3ncnc4c3c(c2Cl)OCCN4Cc2cncc(O)c2)c1C(F)(F)F` [Example 9, 5-((9-(6-amino-4-methyl-3-(trifluoromethyl)pyridin-2-yl)-8-chloro-5,6-dihydro-4H-[1,4]oxazepino[5,6,7-de]quinazolin-4-yl)methyl)pyridin-3-ol]: 10000 nM and 63000 nM.
Turning to `Cc1cc(N)nc(-c2cc3ncnc4c3c(c2Cl)OCCN4CCC#N)c1C(F)(F)F` [Example 13, 3-(9-(6-amino-4-methyl-3-(trifluoromethyl)pyridin-2-yl)-8-chloro-5,6-dihydro-4H-[1,4]oxazepino[5,6,7-de]quinazolin-4-yl)propanenitrile], the results for the IC50 against KRas(G12V) and on KRas were 13000 nM and 36000 nM, respectively.
The matching figures for `Cc1cc(N)nc(-c2cc3nc(OC[C@@]45CCCN4CC(F)(F)C5)nc4c3c(c2Cl)OCCN4C)c1C(F)(F)F` [Example 10, (S)-6-(8-chloro-2-((2,2-difluorotetrahydro-1H-pyrrolizin-7a(5H)-yl)methoxy)-4-methyl-5,6-dihydro-4H-[1,4]oxazepino[5,6,7-de]quinazolin-9-yl)-4-methyl-5-(trifluoromethyl)pyridin-2-amine]: 300 nM and 1300 nM.
The matching figures for `Cc1cc(N)nc(-c2cc3nc(OC[C@]45CCCN4CC(F)(F)C5)nc4c3c(c2Cl)OCCN4C)c1C(F)(F)F` [Example 7, (R)-6-(8-chloro-2-((2,2-difluorotetrahydro-1H-pyrrolizin-7a(5H)-yl)methoxy)-4-methyl-5,6-dihydro-4H-[1,4]oxazepino[5,6,7-de]quinazolin-9-yl)-4-methyl-5-(trifluoromethyl)pyridin-2-amine]: 420 nM and 2300 nM.
Take `Cc1cc(N)nc(-c2c(Cl)c3c4c(nc(OC[C@H]5COCCN5)nc4c2F)N([C@H](C)c2cccnc2N)CCO3)c1C(F)(F)F` (atropisomer, axis not shown) [Example 97, 6-((R)-4-((R)-1-(2-aminopyridin-3-yl)ethyl)-8-chloro-10-fluoro-2-(((R)-morpholin-3-yl)methoxy)-5,6-dihydro-4H-[1,4]oxazepino[5,6,7-de]quinazolin-9-yl)-4-methyl-5-(trifluoromethyl)pyridin-2-amine]: the IC50 at KRas(G12V) was found to be 0.08 nM; at KRas, 0.359 nM.
For the compound `Cc1cc(N)nc(-c2cc3ncnc4c3c(c2Cl)OCCN4Cc2cccc(=O)[nH]2)c1C(F)(F)F` [Example 12, 6-((9-(6-amino-4-methyl-3-(trifluoromethyl)pyridin-2-yl)-8-chloro-5,6-dihydro-4H-[1,4]oxazepino[5,6,7-de]quinazolin-4-yl)methyl)pyridin-2(1H)-one], the IC50 is 8900 nM on KRas(G12V) and 21000 nM at KRas.
`Cc1cc(N)nc(-c2c(Cl)c3c4c(nc(OC[C@@]56CCCN5CC(F)(F)C6)nc4c2F)N([C@H](C)c2nccnc2N)CCO3)c1C(F)(F)F` (atropisomer, axis not shown) [Example 165a, 3-((R)-1-((R)-9-(6-amino-4-methyl-3-(trifluoromethyl)pyridin-2-yl)-8-chloro-2-(((S)-2,2-difluorotetrahydro-1H-pyrrolizin-7a(5H)-yl)methoxy)-10-fluoro-5,6-dihydro-4H-[1,4]oxazepino[5,6,7-de]quinazolin-4-yl)ethyl)pyrazin-2-amine]: the IC50 against KRas(G12V) worked out at 0.69 nM; against KRas, 2.14 nM.
`Cc1cc(N)nc(-c2cc3ncnc4c3c(c2Cl)OCCN4C(C)c2cnc[nH]2)c1C(F)(F)F` (centres unmarked) [Example 15, 6-(4-(1-(1H-imidazol-5-yl)ethyl)-8-chloro-5,6-dihydro-4H-[1,4]oxazepino[5,6,7-de]quinazolin-9-yl)-4-methyl-5-(trifluoromethyl)pyridin-2-amine]: the values for the IC50 against KRas(G12V) and against KRas were 3600 nM and 31000 nM, respectively.
In the case of `Cc1cc(N)nc(-c2c(Cl)c3c4c(nc(OC[C@@H]5C[C@@]6(CN5C)CC6(F)F)nc4c2F)N([C@H](C)c2nccnc2N)CCO3)c1C(F)(F)F` (atropisomer, axis not shown) [Example 171a, 3-((R)-1-((R)-9-(6-amino-4-methyl-3-(trifluoromethyl)pyridin-2-yl)-8-chloro-2-(((3S,6S)-1,1-difluoro-5-methyl-5-azaspiro[2.4]heptan-6-yl)methoxy)-10-fluoro-5,6-dihydro-4H-[1,4]oxazepino[5,6,7-de]quinazolin-4-yl)ethyl)pyrazin-2-amine], the IC50 turned out to be 0.7 nM against KRas(G12V) and 2.2 nM on KRas.
The matching figures for `Cc1cc(N)nc(-c2c(Cl)c3c4c(nc(OC[C@@H]5CC(F)(F)CN5C)nc4c2F)N([C@H](C)c2ccnnc2N)CCO3)c1C(F)(F)F` (atropisomer, axis not shown) [Example 85, 4-((R)-1-((R)-9-(6-amino-4-methyl-3-(trifluoromethyl)pyridin-2-yl)-8-chloro-2-(((S)-4,4-difluoro-1-methylpyrrolidin-2-yl)methoxy)-10-fluoro-5,6-dihydro-4H-[1,4]oxazepino[5,6,7-de]quinazolin-4-yl)ethyl)pyridazin-3-amine]: 0.09 nM and 0.165 nM.
The matching figures for `Cc1cc(N)nc(-c2c(Cl)c3c4c(nc(OC[C@@]56CCN5CC(F)(F)C6)nc4c2F)N([C@H](C)c2nccnc2N)CCO3)c1C(F)(F)F` (single isomer, unassigned) [Example 162d]: 410 nM and 896 nM.
`Cc1cc(N)nc(-c2c(Cl)c3c4c(nc(OC[C@@H]5CCCN5C)nc4c2F)N([C@H](C)c2cccnc2N)CCO3)c1C(F)(F)F` (atropisomer, axis not shown) [Example 127, 6-((R)-4-((R)-1-(2-aminopyridin-3-yl)ethyl)-8-chloro-10-fluoro-2-(((S)-1-methylpyrrolidin-2-yl)methoxy)-5,6-dihydro-4H-[1,4]oxazepino[5,6,7-de]quinazolin-9-yl)-4-methyl-5-(trifluoromethyl)pyridin-2-amine]: the half-maximal inhibitory concentration (IC50) at KRas(G12V) worked out at 0.07 nM; at KRas, 0.0894 nM.
For `Cc1cc(N)nc(-c2c(Cl)c3c4c(nc(OC[C@H]5CC[C@@H]6CO[C@@H](C)CN56)nc4c2F)N([C@H](C)c2cccnc2N)CCO3)c1C(F)(F)F` (atropisomer, axis not shown; (aR)) [Example 93b, 6-((R)-4-((R)-1-(2-aminopyridin-3-yl)ethyl)-8-chloro-10-fluoro-2-(((3S,6R,8aR)-3-methylhexahydro-1H-pyrrolo[2,1-c][1,4]oxazin-6-yl)methoxy)-5,6-dihydro-4H-[1,4]oxazepino[5,6,7-de]quinazolin-9-yl)-4-methyl-5-(trifluoromethyl)pyridin-2-amine], the figures for the IC50 against KRas(G12V) and on KRas were 0.14 nM and 0.35 nM, respectively.

These data come from patent US20240383915A1, “OXAZEPINE COMPOUNDS AND USES THEREOF IN THE TREATMENT OF CANCER” (Genentech, Inc., priority 2021, published 2024).
